Measurements taken from article PMC12775124, “CUL4A-DDB1-DCAF10 is an N-recognin for N-terminally acetylated Src kinases” (Nature Communications, 2026).

Test system: GST-DCAF10
Test: Streptavidin pull-down of GST-DCAF10 with biotinylated Nt-peptides
Format: binding, human
Details: for Binding to GST-DCAF10 (in words) / Nt-free reduction compared to Nt-Ac: 0.5 µM GST-DCAF10, 5 µM peptide, 1 h RT, WB; for Nt-free reduction compared to Nt-Ac: mean ± s.d., n = 3 independent binding assays
Description: To confirm direct interactions between peptides and DCAF10, we performed pull-down assays using bead-bound Nt-peptide variants incubated with purified full-length GST-DCAF10 or GST as a negative control (Fig. 2m–p and Supplementary Fig. 4a).
230 of 1:100), and desalted/concentrated on C18 reversed phase stage tips as previously
MS measurements settings are stated in MS measurements and raw file
BL21(DE3) cells (Thermo Fisher Scientific,
240 agar) plate containing 100 μg/mL ampicillin and 34 μg/mL chloramphenicol, then
Terrific broth (TB) medium (24 g/L yeast extract,
243 20 g/L tryptone, glycerol 4 mL/L, 100 mL/L phosphate buffer containing 0.17 M KH2PO4
244 and 0.72 M K2HPO4) was used to prepare a 1:100 dilution of the starter culture, and OD600
At OD600 = 1, protein induction was initiated by adding 1 mM
247 day, pellets were homogenized and lysed in glycerol lysis buffer (20 mM Tris-HCl pH
Lysis was performed on ice for 30 min, followed by
250 sonication (7 × 20 sec pulses with 20 sec breaks on ice) using a Bandelin sonoplus
Lysates were centrifuged at 4°C for 1 h
253 medium culture was lysed in 20 mL of supernatant (collected in 20 × 1 mL tubes). GST
255 agarose bead; Thermo Fisher Scientific, Waltham, MA, USA). For each 1 mL of
100 μL of GST magnetic beads
257 were washed twice with 500 μL of wash buffer (125 mM Tris-HCl pH 7.4, 150 mM NaCl,
The lysis supernatant was diluted 1:1 with
259 wash buffer, and incubated with the beads on an end-over-end rotator for 1 h at 25°C.
260 After incubation, the supernatant was removed, and the beads were washed twice with
Protein elution was then performed by incubating
263 pH 7.4, 250 mM NaCl, 0.3% Triton X-100) for 30 min at 25°C on an end-over-end rotator.
265 under the same conditions. Elution fractions were pooled and concentrated by
266 centrifugation (4°C, 25 min, 4500 rpm) using a 30 kDa cut-off concentrator (Merck
267 Millipore, #UFC803008, Darmstadt, Germany). Purified proteins were analyzed by
268 colloidal Coomassie stain, WB and MS.
270 Streptavidin pull-downs with GST-DCAF10 and biotinylated peptides
271 Streptavidin magnetic beads (DynabeadsTM MyOneTM Streptavidin T1; Thermo Fisher
272 Scientific, Waltham, MA, USA) were washed twice with 500 μL of wash buffer (125 mM
273 Tris-HCl pH 7.4, 150 mM NaCl, 0.1% Triton X-100). An excess of peptides was added
274 (to ensure full occupancy of the beads) and incubated for 30 min at RT. After peptide
275 binding, beads were again washed three times with 500 μL of wash buffer. The pull-down
276 was then performed in a 100 μL reaction volume with final concentrations of 0.5 µM
277 GST-DCAF10 and 5 µM peptide. GST-DCAF10 or GST alone (as a control) was added
278 to the peptide-streptavidin beads and incubated on a rotator for 1 h at RT. After incubation,
279 the beads were washed three times with 500 μL of wash buffer and resuspended in 4x
280 Laemmli buffer. 1/5 of the input (GST-DCAF10 and GST) and 9/10 of the sample were
281 loaded on a 10% SDS gel and blotted with anti-GST and anti-DCAF10 antibodies, while
282 1/10 was loaded on a 15% SDS gel and blotted with anti-streptavidin antibody to assess
283 equal peptide loading.
285 Streptavidin Sepharose High Performance, GE Healthcare, Chicago, IL, USA) were used.
286 After washing with a high salt wash buffer without detergents (125 mM Tris-HCl pH 7.4,
287 400 mM NaCl), an excess of peptides was added and incubated for 30 min at RT. For each
288 reaction, 10 µL of slurry beads were used. After peptide-binding, beads were again
289 washed once with a high salt wash buffer without detergents and twice with binding buffer
290 without detergents (125 mM Tris-HCl pH 7.4, 150 mM NaCl). The pull-downs were
291 performed in a 100 μL reaction volume in binding buffer without detergents with a final
292 concentration of 0.5 µM GST-DCAF10 and incubated rotating for 1 h at RT. After
293 incubation, the beads were washed five times with 500 μL of high salt wash buffer without […]

GCIKSKGKDSKK [Ac-Lyn, Nt-peptide of Lyn (aa 1–10 + KKK-biotin), Nt-acetylated]
Binding to GST-DCAF10 (in words) (listed as Nt-acetylated Lyn): bound robustly to GST-DCAF10

GCIKSKGKDSKK [Nt-free Lyn, Nt-peptide of Lyn (aa 1–10 + KKK-biotin), Nt-free]
Binding to GST-DCAF10 (in words) (listed as Lyn Nt-free): bound only weakly
Nt-free reduction compared to Nt-Ac: 88.5 ± 14.7%

GCVQCKDKEAKK [Nt-free Fyn, Nt-peptide of Fyn, Nt-free]
Binding to GST-DCAF10 (in words): bound only weakly
Nt-free reduction compared to Nt-Ac: 82.5 ± 10.8%

GSNKSKPKDAKK [Ac-Src, Nt-peptide of Src, Nt-acetylated]
Lower binding in pull-downs (compared with Lyn and Fyn): ~ 30%
